Data from publication PMC7995636 (Bioorganic & medicinal chemistry, 2021).

Key:
P-glycoprotein (Pgp) = conditions: cited from earlier work
[1] = system: breast cancer resistance protein (BCRP1); conditions: cited from earlier work
[2] = higher in brain; cited from earlier work
Bovine brain tubulin = Bovine brain tubulin (Bos taurus, UniProt Q6B856); assay: Inhibition of tubulin assembly; type: biochemical
PDGFR-β = PDGFR-β (Homo sapiens, UniProt P09619); assay: Phosphotyrosine ELISA, PDGFR-β kinase inhibition; type: cell-based; conditions: compared to 1
Sequence of PDGFR-β (P09619 33-1106): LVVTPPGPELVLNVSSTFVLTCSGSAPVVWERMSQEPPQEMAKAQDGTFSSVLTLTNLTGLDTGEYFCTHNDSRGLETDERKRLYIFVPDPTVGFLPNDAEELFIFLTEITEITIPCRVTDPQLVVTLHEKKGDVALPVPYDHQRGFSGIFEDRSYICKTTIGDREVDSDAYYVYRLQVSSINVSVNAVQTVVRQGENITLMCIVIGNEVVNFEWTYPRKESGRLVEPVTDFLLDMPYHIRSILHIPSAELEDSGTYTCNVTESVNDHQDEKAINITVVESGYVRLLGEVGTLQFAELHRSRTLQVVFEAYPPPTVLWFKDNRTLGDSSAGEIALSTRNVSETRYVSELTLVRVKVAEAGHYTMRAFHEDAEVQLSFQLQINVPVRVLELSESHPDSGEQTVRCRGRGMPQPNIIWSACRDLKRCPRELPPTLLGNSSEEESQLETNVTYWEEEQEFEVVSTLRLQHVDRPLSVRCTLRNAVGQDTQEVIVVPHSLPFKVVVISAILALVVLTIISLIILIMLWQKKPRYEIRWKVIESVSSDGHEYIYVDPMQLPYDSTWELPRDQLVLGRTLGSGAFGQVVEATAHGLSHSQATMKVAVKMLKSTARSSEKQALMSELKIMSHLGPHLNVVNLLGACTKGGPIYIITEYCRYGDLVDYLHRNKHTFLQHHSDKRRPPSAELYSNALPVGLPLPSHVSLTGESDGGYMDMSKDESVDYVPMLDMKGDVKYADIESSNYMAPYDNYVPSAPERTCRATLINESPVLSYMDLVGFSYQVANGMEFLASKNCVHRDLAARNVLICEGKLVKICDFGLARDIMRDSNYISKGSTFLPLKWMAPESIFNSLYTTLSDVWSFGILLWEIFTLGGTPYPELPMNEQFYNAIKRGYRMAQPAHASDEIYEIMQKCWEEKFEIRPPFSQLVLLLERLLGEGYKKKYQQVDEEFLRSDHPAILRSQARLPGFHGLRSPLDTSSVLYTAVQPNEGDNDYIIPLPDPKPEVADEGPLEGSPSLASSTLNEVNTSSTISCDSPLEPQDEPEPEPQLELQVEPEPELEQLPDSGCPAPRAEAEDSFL

HeLa cells = assay: SRB assay, HeLa; type: cell-based; conditions: Homo sapiens, read-out: IC50 ± SD in HeLa
HeLa WT-βIII cells = assay: SRB assay, HeLa WT-βIII; type: cell-based; conditions: Homo sapiens, read-out: IC50 ± SD in WT βIII

Sequence of Bovine brain tubulin (Q6B856 whole entry): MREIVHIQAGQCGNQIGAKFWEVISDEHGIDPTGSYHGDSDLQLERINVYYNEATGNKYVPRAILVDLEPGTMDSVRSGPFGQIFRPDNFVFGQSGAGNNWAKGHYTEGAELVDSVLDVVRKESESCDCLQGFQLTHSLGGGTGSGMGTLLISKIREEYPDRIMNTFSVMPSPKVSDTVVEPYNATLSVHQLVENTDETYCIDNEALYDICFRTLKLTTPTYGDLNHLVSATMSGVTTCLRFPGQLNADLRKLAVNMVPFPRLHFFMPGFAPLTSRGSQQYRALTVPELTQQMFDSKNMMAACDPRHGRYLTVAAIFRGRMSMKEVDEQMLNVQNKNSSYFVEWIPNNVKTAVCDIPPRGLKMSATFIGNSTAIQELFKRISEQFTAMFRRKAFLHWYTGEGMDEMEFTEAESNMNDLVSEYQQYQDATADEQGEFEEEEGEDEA
Sequence of Bovine brain tubulin (P81947 whole entry partner): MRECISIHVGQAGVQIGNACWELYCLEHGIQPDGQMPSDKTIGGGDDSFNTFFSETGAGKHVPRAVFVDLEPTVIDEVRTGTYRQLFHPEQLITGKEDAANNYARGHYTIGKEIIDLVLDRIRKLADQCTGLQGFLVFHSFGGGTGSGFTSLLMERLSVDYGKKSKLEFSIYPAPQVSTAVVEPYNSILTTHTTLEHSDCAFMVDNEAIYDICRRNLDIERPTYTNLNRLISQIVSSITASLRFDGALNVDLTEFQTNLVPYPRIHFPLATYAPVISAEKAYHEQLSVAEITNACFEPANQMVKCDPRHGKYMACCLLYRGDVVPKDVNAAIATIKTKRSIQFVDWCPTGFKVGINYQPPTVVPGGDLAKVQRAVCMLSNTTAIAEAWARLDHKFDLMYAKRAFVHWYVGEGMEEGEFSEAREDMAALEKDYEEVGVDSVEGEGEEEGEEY

COc1ccc(N(C)c2nc(C)nc3ccccc23)cc1 [Compound 1, N-(4-Methoxyphenyl)-N,2-dimethylquinazolin-4-amine]
substrate for P-glycoprotein (Pgp) (P-glycoprotein (Pgp)): not a substrate
substrate for breast cancer resistance protein (BCRP1) [1]: not a substrate
concentrations in the brain compared to the plasma [2]: 30 fold

CSc1ccc(N(C)c2nc(C)nc3ccccc23)cc1 [Compound 3, N,2-Dimethyl-N-(4-(methylthio)phenyl)quinazolin-4-amine]
IC50 (Bovine brain tubulin): 0.48 ± 0.07 µM

COc1cccc2cc(N(C)c3nc(C)nc4ccccc34)ccc12 [Compound 4, N-(5-Methoxynaphthalen-2-yl)-N,2-dimethylquinazolin-4-amine]
fold loss of potency with PDGFR-β (PDGFR-β): ~ 5 fold
IC50 (Bovine brain tubulin): 0.64 ± 0.01 µM

COc1ccc(N(C)c2nc(Cl)nc3ccccc23)cc1 [Compound 8, 2-Chloro-N-(4-methoxyphenyl)-N-methylquinazolin-4-amine]
IC50 (Bovine brain tubulin): 0.47 ± 0.02 µM

CC(=O)O[C@H]1C(=O)[C@@]2(C)[C@H]([C@H](OC(=O)c3ccccc3)[C@]3(O)C[C@H](OC(=O)[C@H](O)[C@@H](NC(=O)c4ccccc4)c4ccccc4)C(C)=C1C3(C)C)[C@]1(OC(C)=O)CO[C@@H]1C[C@@H]2O [Paclitaxel]
IC50 (HeLa cells): 0.0028 ± 0.0004 µM
IC50 (HeLa WT-βIII cells): 0.024 ± 0.0002 µM
